Laboratory results taken from US20250376659A1, “DERIVATION OF SOMATOTROPHS FROM STEM CELLS AND USES THEREOF” (MEMORIAL SLOAN-KETTERING CANCER CENTER, priority 2017, published 2025).
“Also recorded” adds a separate entry of the source. No end group written: not given here.

Tests used:
Human ES or iPS cells = experiment: Marker gene expression during step-wise differentiation of human pluripotent stem cells to somatotrophs; type: cell-based; details: for PIT1 expression: FIG. 4, FIG. 5, FIG. 16; for PIT1 expression / GH1 expression: compared with the control group; for GH1 expression: FIG. 6, 7A, 7B, 16
Experimental: Human ES or iPS cells were expanded in E8 media on matrigel.
On day 0, cells were changed to E6 media where BMP4 (5 ng/ml) and SB43152 (10 μM) were added, with daily medium and factors change.
On day 3, BMP4 was removed and the following factors added: FGF8 (100 ng/ml); FGF10 (50 ng/ml); FGF18 (50 ng/ml); Sonic hedgehog (SHH) (100 ng/ml) or SAG (Smoothened Agonist) (100 nM); LDN193189 (250 nM). Media and factors were changed every other day.
Media and factors are changed every other day.
(§1) On day 15, the following factors were used: Retinoic acid (1 μM); Thyroid hormone T3 (10 nM); Dexamethasone (1 μM); cyclic AMP (100 μg/ml); DPN (0.1 nM); Growth Hormone Releasing Hormone (GHRH) (1 μM). Media and factors were changed every other day.
On day 29, the cells entered the maturation phase and could be maintained in the same factors for a variable period ranging from 1-4 weeks. […] They could be subjected to FACS sorting for GHRH in order to obtain a pure cell population of somatotrophs. Cells remained on matrigel for the duration of the protocol.
In order to derive GH cells, the strategy was to first differentiate human pluripotent stem cells to pre-placodal ectoderm and anterior pituitary progenitors. The cells were further differentiated to PROP1 lineage, and then to PIT1 lineage. The cells were then terminally differentiated to GH cells. The step-wise protocol to differentiate pluripotent stem cells into growth hormone secreting cells involved promoting Prop1 expression in anterior pituitary progenitors, activating POU1F1 (PIT1), directing cell differentiation to growth hormone expressing cells. The growth hormone expressing cells were also further matured via prolonged incubation. The key markers to monitor the process of differentiation comprised Prop1, POU1F1 (PIT1), GH and GHRHR.
For example, the first step was to induce non-neural ectoderm by BMP4 and inhibitor of TGF-β/Activin/NODAL pathway (e.g., SB431542). Then the cells were subjected to inhibitor of TGF-β/Activin/NODAL pathway (e.g., SB431542), FGF8/10/18, SHH agonist (e.g., SHH), and a SMAD inhibitor (e.g., LDN 193189) to induce anterior pituitary progenitors, which were characterized by PITX1/2, LHX3/4 and PROP1 expression.
For selective differentiation to somatotrophs, retinoic acid were used to suppress POMC expressed by corticotrophs and to promote GH1 expression which is expressed by somatotrophs. In addition, the corticosteroid (e.g., Dexamethasone) and thyroid hormone (e.g., T3) were added to the medium to inhibit PRL (expressed by lactotroph) and TSH (expressed by thyrotroph), while promoting GH1 expression.

rodent GSK3β homologs = details: cited from earlier work
somatotrophs = experiment: GHRH stimulation of stem-cell-derived GH cell population; type: cell-based, human; details: cell population after growth hormone induction, FIG. 8 lower right panel
Experimental: as §1
On day 29, the cells entered the maturation phase and could be maintained in the same factors for a variable period ranging from 1-4 weeks. Cells at this stage expressed GHRH receptors (GHRHR). They could be subjected to FACS sorting for GHRH in order to obtain a pure cell population of somatotrophs. Cells remained on matrigel for the duration of the protocol.
After this step, the majority population in culture were somatotrophs which expressed the somatotroph marker GH1 and secreted growth hormone in the supernatant. The phenotype of the population is shown FIG. 8. The cell population expressed high amount of GH and GHRHR, and low amount of TSH, PRL and LH. GH expression was further increased upon GHRH stimulation (FIG. 8, lower right panel).

Molecule: Cc1c[nH]c(-c2cnc(NCCNc3ccc(C#N)cn3)nc2-c2ccc(Cl)cc2Cl)n1 [CHIR99021, 6-(2-(4-(2,4-dichlorophenyl)-5-(4-methyl-1H-imidazol-2-yl)pyrimidin-2-ylamino)ethylamino) nicotinonitrile, reference compound]
- PIT1 expression (Human ES or iPS cells): induce
- IC50 values against rodent GSK3β homologs (rodent GSK3β homologs): nanomolar

Molecule: N#CC(Cc1ccc(O)cc1)c1ccc(O)cc1 (stereo not drawn) [DPN, 2,3-bis(4-hydroxyphenyl) propionitrile, reference compound]
- GH1 expression (Human ES or iPS cells): further promoted

Molecule: N[C@@H](Cc1cc(I)c(Oc2ccc(O)c(I)c2)c(I)c1)C(=O)O [T3, reference compound]
- TSH-β expression (Human ES or iPS cells; FIG. 7C, p-value<0.01 compared with the control groups): significantly reduced

Molecule: C[C@]12C[C@H](O)[C@H]3[C@@H](CCC4=CC(=O)CC[C@@]43C)[C@@H]1CC[C@@H]2C(=O)CO [corticosterone, reference compound]
- PRL expression (Human ES or iPS cells; FIG. 7D, p-value<0.01 compared with the control groups): significantly reduced

Molecule: GHRH: Growth Hormone Releasing Hormone, GHRH signaling pathway agonist (YADAIFTNSYRKVLGQLSARKLLQDIMSRQQGESNQERGARARL; ends and bridges not checked; UniProt P01286 32-75, looked up)
- GH1 expression (Human ES or iPS cells): significantly increased; also recorded: further promoted
- GH expression upon GHRH stimulation (somatotrophs): increased

Molecule: Ghrelin: Ghrelin signaling pathway agonist (GSSFLSPEHQRVQQRKESKKPPAKLQPR; ends and bridges not checked; UniProt Q9UBU3 24-51, looked up)
- GH1 expression (Human ES or iPS cells): promoting

Molecule: IL 6: interleukin
- PIT1 expression (Human ES or iPS cells): increased
- GH1 expression (Human ES or iPS cells): increased

B1: IL10: interleukin (protein, UniProt P22301 19-178, looked up)
Interleukin-10: SPGQGTQSENSCTHFPGNLPNMLRDLRDAFSRVKTFFQMKDQLDNLLLKESLLEDFKGYLGCQALSEMIQFYLEEVMPQAENQDPDIKAHVNSLGENLKTLRLRLRRCHRFLPCENKSKAVEQVKNAFNKLQEKGIYKAMSEFDIFINYIEAYMTMKIRN
- PIT1 expression (Human ES or iPS cells): increased
- GH1 expression (Human ES or iPS cells): increased

B2: FGF8: activator of FGF signaling, dorsalizing agent (protein, UniProt P55075 23-233, looked up)
Fibroblast growth factor 8: QEGPGRGPALGRELASLFRAGREPQGVSQQHVREQSLVTDQLSRRLIRTYQLYSRTSGKHVQVLANKRINAMAEDGDPFAKLIVETDTFGSRVRVRGAETGLYICMNKKGKLIAKSNGKGKDCVFTEIVLENNYTALQNAKYEGWYMAFTRKGRPRKGSKTRQHQREVHFMKRLPRGHHTTEQSLRFEFLNYPPFTRSLRGSQRTWAPEPR
- PROP1 expression (Human ES or iPS cells; FIG. 3, FIG. 5): maintained
- PIT1 expression (Human ES or iPS cells): downregulated
- POMC expression (Human ES or iPS cells; FIG. 5): upregulated
